We go through 14 compounds from patent US20260124214A1, “HETEROCYCLIC COMPOUNDS FOR USE IN THE TREATMENT OF CANCER” (ARTIOS PHARMA LIMITED, priority 2021, published 2026).

Counter-ions that a name gives are not always drawn.

The target in the assay is T1, Human Polθ polymerase domain (aa1820-2590) (Homo sapiens, UniProt O75417).
T1 construct: Human Polθ polymerase domain (aa1820-2590) was expressed in E. Coli; made in house; host or cells: E. coli
T1 sequence (O75417 1820-2590): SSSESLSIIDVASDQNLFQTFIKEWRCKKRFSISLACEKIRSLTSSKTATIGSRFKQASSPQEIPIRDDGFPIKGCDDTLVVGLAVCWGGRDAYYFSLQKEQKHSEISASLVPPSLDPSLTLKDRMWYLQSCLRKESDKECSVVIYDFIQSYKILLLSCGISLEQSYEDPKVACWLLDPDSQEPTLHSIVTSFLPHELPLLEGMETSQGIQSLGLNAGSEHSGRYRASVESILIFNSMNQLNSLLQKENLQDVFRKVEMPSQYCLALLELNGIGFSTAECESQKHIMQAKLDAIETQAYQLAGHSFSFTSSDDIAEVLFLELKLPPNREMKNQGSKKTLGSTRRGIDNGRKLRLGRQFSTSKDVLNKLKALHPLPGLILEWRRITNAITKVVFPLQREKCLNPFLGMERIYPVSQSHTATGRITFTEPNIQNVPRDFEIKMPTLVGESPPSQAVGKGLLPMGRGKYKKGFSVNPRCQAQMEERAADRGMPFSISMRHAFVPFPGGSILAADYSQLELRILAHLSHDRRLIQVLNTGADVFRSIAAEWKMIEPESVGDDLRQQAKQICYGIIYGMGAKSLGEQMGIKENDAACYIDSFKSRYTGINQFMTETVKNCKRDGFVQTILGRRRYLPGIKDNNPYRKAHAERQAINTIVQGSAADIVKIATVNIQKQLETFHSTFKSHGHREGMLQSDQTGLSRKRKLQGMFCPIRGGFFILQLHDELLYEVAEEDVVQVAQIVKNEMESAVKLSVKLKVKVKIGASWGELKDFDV
The assay can be described thus: Polθ Polymerase Domain WT KI Assay (PicoGreen). It is filed as biochemical. Conditions: 100 nM DNA substrate, 0.156 nM Polθ, initial rates vs inhibitor concentration. The method, then: A PicoGreen assay was used to measure the KI values of reversible compounds that inhibit the activity of Polθ in vitro.
Human Polθ polymerase domain (aa1820-2590) was expressed in E. Coli, purified, aliquoted and stored at −80° C. until required. Polθ substrate was generated from a 1.2:1 mix of DNA II Short to DNA II Long to give a final concentration of […] substrate in annealing buffer (20 mM Tris pH 7.5, 50 mM NaCl). The substrate was heated in 50 mL aliquots to 95° C. in a heating block for 5 min before the heating block switched off, the reaction left to cool to rt and stored at −20° C. until required.
Assay measurements were performed with 1× buffer comprising 25 mM Tris pH 7.5, 12.5 mM NaCl, […], 5% (v/v) glycerol, 0.01% v/v Triton x-100, 0.1 mg/ml BSA, 1 mM DTT. […] 100 nL of 23×1:1.5-fold serial dilutions and a DMSO only control were dispensed using the Tecan dispenser into Greiner 384 well black low volume plates (product code 784076). DMSO concentration was maintained at 1% of the final assay volume by back filling with DMSO.
To stop the reaction, 5 μL of a solution containing 25 mM Tris-HCl PH 7.5 and 20 mM EDTA was added at […] (t=0, 15, 30, 60, 90, 120, 150, 180 mins) using the Tempest's time delay function. The plates were covered during the time course to prevent evaporation. After completing the assay, 5 μL of detection reagent (25 mM Tris-HCl pH 7.5 and 2.5% (v/v) PicoGreen) was dispensed into the wells using a Tempest liquid handler (Formulatrix) and plates subsequently read on the CLARIOstar Plus (BMG Labtech) using the default optical settings for fluorescein and the auto gain/focus settings.
All data analysis was carried out using GraphPad Prism V.8 (GraphPad Software Inc, San Diego, CA). Time course data for each inhibitor concentration were fitted to the linear regression model in GraphPad Prism. Any time points where the control (DMSO only) reaction was no longer linear were excluded from the analysis. The initial rates (slopes) obtained from the linear regression were then plotted against inhibitor concentration and fitted to an inhibitor vs. response variable slope (four parameter) model on GraphPad Prism to determine the KI values.
In turn, `Cc1cc(C(F)(F)F)cc(N2C(=O)C[C@@H]3CN(CC(C)O)c4c(F)cccc4N(C)C(=O)[C@H]32)n1` (mixture of isomers) [Example 130a, (3aR,11aS)-6-fluoro-5-((S/R)-2-hydroxypropyl)-10-methyl-1-(6-methyl-4-(trifluoromethyl)pyridin-2-yl)-1,3a,4,5,10,11a-hexahydro-2H-benzo[b]pyrrolo[2,3-f][1,4]diazocine-2,11(3H)-dione] displayed a Ki of 11.8 nM.
With `Cc1cc(C(F)(F)F)cc(N2C(=O)C[C@@H]3CN(CC(C)O)c4c(Cl)cccc4N(C)C(=O)[C@H]32)n1` (mixture of isomers) [Example 131a, (3aR,11aS)-6-chloro-5-((S/R)-2-hydroxypropyl)-10-methyl-1-(6-methyl-4-(trifluoromethyl)pyridin-2-yl)-1,3a,4,5,10,11a-hexahydro-2H-benzo[b]pyrrolo[2,3-f][1,4]diazocine-2,11(3H)-dione] the figure was 1.99 nM; with `Cc1cc(C(F)(F)F)cc(N2C(=O)C[C@@H]3CN(Cc4cn5c(n4)[C@H](C)N(C)CC5)c4c(Cl)cccc4N(C)C(=O)[C@H]32)n1` (racemic) [Example 96b, (3aR,11aS)-6-Chloro-5-(((S/R)-7,8-dimethyl-5,6,7,8-tetrahydroimidazo[1,2-a]pyrazin-2-yl)methyl)-10-methyl-1-(6-methyl-4-(trifluoromethyl)pyridin-2-yl)-1,3a,4,5,10,11a-hexahydro-2H-benzo[b]pyrrolo[2,3-f][1,4]diazocine-2,11(3H)-dione], 1.66 nM; with `Cc1cc(C(F)(F)F)cc(N2C(=O)C[C@@H]3CN(C[C@@H]4CCCCN4)c4c(Cl)cccc4N(C)C(=O)[C@H]32)n1` (racemic) [Example 105b, (3aR,11aS)-6-Chloro-10-methyl-1-(6-methyl-4-(trifluoromethyl)pyridin-2-yl)-5-(((S/R)-piperidin-2-yl)methyl)-1,3a,4,5,10,11a-hexahydro-2H-benzo[b]pyrrolo[2,3-f][1,4]diazocine-2,11(3H)-dione], 2.98 nM.
With `Cc1cc(C(F)(F)F)cc(N2C(=O)C[C@@H]3CN(C[C@H]4COCCN4)c4c(F)cccc4N(C)C(=O)[C@H]32)n1` (racemic) [Example 106b, (3aR,11aS)-6-Fluoro-10-methyl-1-(6-methyl-4-(trifluoromethyl)pyridin-2-yl)-5-(((S/R)-morpholin-3-yl)methyl)-1,3a,4,5,10,11a-hexahydro-2H-benzo[b]pyrrolo[2,3-f][1,4]diazocine-2,11(3H)-dione] the figure was 28.2 nM; with `Cc1cc(C(F)(F)F)cc(N2C(=O)C[C@@H]3CN(C[C@@H]4CCCN4)c4c(Cl)cccc4N(C)C(=O)[C@H]32)n1` (racemic) [Example 107b, (3aR,11aS)-6-Chloro-10-methyl-1-(6-methyl-4-(trifluoromethyl)pyridin-2-yl)-5-(((S/R)-pyrrolidin-2-yl)methyl)-1,3a,4,5,10,11a-hexahydro-2H-benzo[b]pyrrolo[2,3-f][1,4]diazocine-2,11(3H)-dione], 5.21 nM.
With `Cc1cc(C(F)(F)F)cc(N2C(=O)C[C@@H]3CN(C[C@H]4COCCN4)c4c(Cl)cccc4N(C)C(=O)[C@H]32)n1` (racemic) [Example 108a, (3aR,11aS)-6-Chloro-10-methyl-1-(6-methyl-4-(trifluoromethyl)pyridin-2-yl)-5-(((S/R)-morpholin-3-yl)methyl)-1,3a,4,5,10,11a-hexahydro-2H-benzo[b]pyrrolo[2,3-f][1,4]diazocine-2,11(3H)-dione] the figure was 2.17 nM; with `Cc1cc(C(F)(F)F)cc(N2C(=O)C[C@@H]3CN(C[C@@H]4CNCCO4)c4c(Cl)cccc4N(C)C(=O)[C@H]32)n1` (racemic) [Example 109b, (3aR,11aS)-6-Chloro-10-methyl-1-(6-methyl-4-(trifluoromethyl)pyridin-2-yl)-5-(((S/R)-morpholin-2-yl)methyl)-1,3a,4,5,10,11a-hexahydro-2H-benzo[b]pyrrolo[2,3-f][1,4]diazocine-2,11(3H)-dione], 2.02 nM; with `Cc1cc(C(F)(F)F)cc(N2C(=O)C[C@@H]3CN(C[C@H]4COCCN4)c4c(C)cccc4N(C)C(=O)[C@H]32)n1` (racemic) [Example 112b, (3aR,11aS)-6,10-Dimethyl-1-(6-methyl-4-(trifluoromethyl)pyridin-2-yl)-5-(((S/R)-morpholin-3-yl)methyl)-1,3a,4,5,10,11a-hexahydro-2H-benzo[b]pyrrolo[2,3-f][1,4]diazocine-2,11(3H)-dione], 1.81 nM.
Regarding `Cc1cc(C(F)(F)F)cc(N2C(=O)C[C@@H]3CN(Cc4cn5c(n4)[C@H](C)N(C)CC5)c4c(C)cccc4N(C)C(=O)[C@H]32)n1` (racemic) [Example 116b, (3aR,11aS)-5-(((S/R)-7,8-Dimethyl-5,6,7,8-tetrahydroimidazo[1,2-a]pyrazin-2-yl)methyl)-6,10-dimethyl-1-(6-methyl-4-(trifluoromethyl)pyridin-2-yl)-1,3a,4,5,10,11a-hexahydro-2H-benzo[b]pyrrolo[2,3-f][1,4]diazocine-2,11(3H)-dione], the inhibitory constant (Ki) stood at 0.421 nM.
With `Cc1cc(C(F)(F)F)cc(N2C(=O)C[C@@H]3CN(C[C@@H]4CCCCN4C)c4c(Cl)cccc4N(C)C(=O)[C@H]32)n1` (racemic) [Example 117b, (3aR,11aS)-6-Chloro-10-methyl-1-(6-methyl-4-(trifluoromethyl)pyridin-2-yl)-5-(((S/R)-1-methylpiperidin-2-yl)methyl)-1,3a,4,5,10,11a-hexahydro-2H-benzo[b]pyrrolo[2,3-f][1,4]diazocine-2,11(3H)-dione] the figure was 4.09 nM; with `Cc1cc(C(F)(F)F)cc(N2C(=O)C[C@@H]3CN(C[C@@H]4CCCN4C)c4c(Cl)cccc4N(C)C(=O)[C@H]32)n1` (racemic) [Example 118b, (3aR,11aS)-6-Chloro-10-methyl-1-(6-methyl-4-(trifluoromethyl)pyridin-2-yl)-5-(((S/R)-1-methylpyrrolidin-2-yl)methyl)-1,3a,4,5,10,11a-hexahydro-2H-benzo[b]pyrrolo[2,3-f][1,4]diazocine-2,11(3H)-dione], 6.04 nM; with `Cc1cc(C(F)(F)F)cc(N2C(=O)C[C@@H]3CN(C[C@H]4COCCN4C)c4c(Cl)cccc4N(C)C(=O)[C@H]32)n1` (racemic) [Example 119a, (3aR,11aS)-6-Chloro-10-methyl-1-(6-methyl-4-(trifluoromethyl)pyridin-2-yl)-5-(((S/R)-4-methylmorpholin-3-yl)methyl)-1,3a,4,5,10,11a-hexahydro-2H-benzo[b]pyrrolo[2,3-f][1,4]diazocine-2,11(3H)-dione], 1.28 nM.
Compound `Cc1cc(C(F)(F)F)cc(N2C(=O)C[C@@H]3CN(C[C@@H]4CN(C)CCO4)c4c(Cl)cccc4N(C)C(=O)[C@H]32)n1` (racemic) [Example 120b, (3aR,11aS)-6-Chloro-10-methyl-1-(6-methyl-4-(trifluoromethyl)pyridin-2-yl)-5-(((S/R)-4-methylmorpholin-2-yl)methyl)-1,3a,4,5,10,11a-hexahydro-2H-benzo[b]pyrrolo[2,3-f][1,4]diazocine-2,11(3H)-dione hydrochloride] had a Ki of 4.14 nM.

The Ki is the equilibrium dissociation constant of an inhibitor or competing ligand from its target. The low end stands for a stronger hold on the target, the high end for a looser hold on the target.
